Test system: 6-OHDA lesioned mice
Assay: Unilateral striatal 6-OHDA mouse model, neurorestoration experiment (behaviour and post-mortem)
Assay type: in vivo, C57BL/6 mice
Description: Young adult (9-week old, 25 grams) male C57BL/6 mice were purchased from Charles River Laboratories (Montréal, QC, Canada). Animals were housed 4 per cage under standard conditions with free access to food and water, randomized and handled under the same conditions by one investigator. All experiments were performed in accordance with the Canadian Council on Animal Care and were approved by the Institutional Committee of the Centre Hospitalier de l'Université Laval (CHUL). Throughout the experiment, the health status of all mice included in the study was closely monitored for weight loss or other signs of health-related issues. All efforts were made to minimize animal pain and discomfort.
This protocol was based on the unilateral stereotaxic intra-striatal injection of 6-hydroxydopamine (6-OHDA). Intrastriatal administration of 6-OHDA creates a progressive and retrograde degenerative changes in DA neurons of the substantia nigra (Bjorklund et al., 1997; Costantini et al., 2001). Mice were anaesthetized using isoflurane and placed onto a stereotactic frame adapted for mice. 6-OHDA was dissolved at a concentration of 2 μg/μl in 0.9% saline and 0.02% ascorbic acid and 2 μl was injected in the right striatum at a rate of 0.5 μl/min. The needle was left in place for 3 min after the injection before retraction. The injection was performed using an Hamilton syringe according to the stereotaxic co-ordinates: AP: +0.04 cm, ML: −0.18 cm, DV: −0.31 cm (corresponding to the atlas of Allan P. 2008).
To serve as controls, other mice were subjected to the same surgical procedures, but only 2 μl of solvent (0.9% saline and 0.02% ascorbic acid) was injected in the same coordinates. The study was further divided into 2 distinct experiments: • 1) The neurorescuing effects of cystamine (cystamine dihydrochloride, Sigma, St. Louis, Mo.) in 6-OHDA leisoned mice. For this experiment, the first i.p. injection of 10 mg/kg cystamine was administered 3 days post surgery and the treatment continued daily for 14 days. • 2) The neurorestorative effects of cystamine (cystamine dihydrochloride, Sigma, St. Louis, Mo.) in 6-OHDA lesioned mice. The treatment of cystamine began 3 weeks post surgery, when the dopaminergic (DAergic) lesion is known to be stable and has reached its peak. The treatment was continued daily for 6 weeks.
The effects of cystamine on the 6-OHDA toxicity were studied in the following experimental groups: Group I, Sham+Saline; Group II, 6-OHDA+Saline; Group III; Sham+Cystamine; Group IV, 6-OHDA+Cystamine. In total, 40 mice (n=10 per group) were utilized for each experiment, monitored daily for weight variation, and ultimately sacrificed by perfusion 24 hrs after the last cystamine (or vehicle) injection.
Animals were sacrificed under deep anesthesia with ketamine/xylazine (Vetalar, Bioniche, Belleville, ON/Rompun, Bayer, Toronto, ON). All mice were subjected to intracardiac perfusion with RNAse free 0.1 M phosphate-buffered saline (PBS). After intracardiac perfusion, brains were collected and the posterior brain of each mice, comprising the entire mesencephalon, was post-fixed in 4% PFA for additional immunohistochemistry and in situ hybridization analyses. The anterior brain, comprising the right and left striatum, was snap-frozen and used for HPLC and WB analyses.
Catecholamine quantification by HPLC, TH immunohistochemistry and in situ hybridization for Nurr1 and DAT were conducted as described in Example 1.
The loss of DAergic neurons was determined by stereological counts of TH-immunoreactive cells (identifiable somas) under bright-field illumination. Every 10th section through the SNc was analyzed using Stereo investigator software (MicroBrighffield, Colchester, Vt., USA) attached to an E800 Nikon microscope (Nikon Canada Inc., Mississauga, ON, Canada). After delineation of the SNc at low magnification (4× objective), a point grid was overlaid onto each section. […]

NCCSSCCN [cystamine, Cystamine]
restoration of DA content in the lesioned striatum (10 mg/kg daily for 6 weeks from 3 weeks post-lesion): did not significantly restore DA content | cylinder test, limb-use asymmetry (percentage of contralateral contacts) (10 mg/kg daily for 6 weeks from 3 weeks post-lesion, 6 and 9 weeks post-lesion): asymmetry was not visible | apomorphine-induced contralateral rotations (10 mg/kg daily for 6 weeks from 3 weeks post-lesion, 6 and 9 weeks post-surgery): significantly attenuated by the cystamine treatment | decrease of striatal DA levels measured by HPLC (6-OHDA lesioned mice, 10 mg/kg daily for 6 weeks from 3 weeks post-lesion): 84% | decrease in the total number of TH-positive neurons in the SNpc (6-OHDA+cystamine vs sham+cystamine, 10 mg/kg daily for 6 weeks from 3 weeks post-lesion): 65% | DA turnover (vs 6-OHDA mice treated with saline): strong tendency to normalise the DA turnover

From US20140073694A1, “CYSTAMINE ANALOGUES FOR THE TREATMENT OF PARKINSON'S DISEASE” (UNIVERSITE LAVAL, priority 2011, published 2014)
